Assay results published in paper PMC11224109, “Synthesis and preclinical evaluation of novel ^18F-vancomycin-based tracers for the detection of bacterial infections using positron emission tomography” (European Journal of Nuclear Medicine and Molecular Imaging, 2024).
Read-outs that look alike come from different tables or passages of the source.

Experiments:
[1] = system: S. epidermidis ATCC 35,984; conditions: ATCC 35, 17 h
Protocol: From a single colony an overnight culture was inoculated in Mueller Hinton Broth (MHB) and incubated overnight. On the day of the experiment, a fresh culture was started in 10 mL of MHB until exponential phase was reached. From this, the culture was diluted to an OD600 of 0.01 for the MIC experiment. […] Growth was recorded using a BioTeK Synergy2 microplate spectrophotometer (Agilent, Santa Clara, United States).

E. coli [2] = assay: In vitro tracer binding to E. coli; set-up: species or system Escherichia coli; conditions: clinical isolate, culture OD600 about 3.0, 37 °C, sampled at 0, 15 and 30 min, washed twice, gamma counter
Protocol: Single colonies of clinical S. aureus and E. coli isolates were used to inoculate TSB and incubated overnight. From the overnight cultures, fresh cultures were started and grown to an optical density at 600 nm (OD600) of approximately 3.0. Both strains were incubated with tracer (3.5 MBq in 1 mL 0.9% saline) in a water bath at 37 °C. The final tracer concentration was 120 kBq ± 28 (38.6 pg ± 9.1 and 0.5 pg ± 0.1 of [^18F]BODIPY-FL-vancomycin and [^18F]PQ-VE1-vancomycin, respectively) per mL culture. At fixed time intervals (0, 15 and 30 min), aliquots were collected (2.0 mL in a 2 mL Eppendorf tube) and washed twice with sterile PBS (1.0 mL per washing step). In each washing step, the bacteria were pelleted by centrifugation (10.000 rpm, 60 s) and resuspended in fresh PBS. […] Measurements were corrected for background and decay. Results are reported as counts per s (Bq). To correlate bound tracer with the number of bacteria in a sample, the bacterial suspensions (2 ×) were plated and CFUs were counted.

Gram-positive bacteria = assay: Tracer binding to test panel of clinically relevant bacteria, Gram-positive; set-up: species or system C. acnes, E. faecalis, S. aureus, S. capitis, S. epidermidis; conditions: summary table
Protocol: Clinical isolates of E. cloacae, S. capitis, S. aureus, as well as type strains of E. coli, E. faecalis, K. pneumoniae, P. aeruginosa and S. epidermidis were grown under aerobic conditions in brain heart infusion broth. A clinical isolate of the anaerobic bacterium C. acnes was grown on plate in an anaerobic chamber, and subsequently cultured in liquid medium with minimal headspace. Samples from fresh bacterial cultures were normalized to an OD600 of 1.0, fixed in PBS with 0.5% paraformaldehyde (PFA) for 10 min at room temperature, and resuspended in 1 mL sterile PBS. The fixated bacteria were incubated with tracer (133 kBq per mL, 42.8 pg and 0.6 pg of [^18F]BODIPY-FL-vancomycin and [^18F]PQ-VE1-vancomycin, respectively) and washed twice with sterile PBS. […] Measurements were corrected for background and decay. Results are reported as percentage of the total tracer added.

[3] = system: S. aureus USA300 MRSA strain; assay: Competition with unlabeled vancomycin; type: binding, Staphylococcus aureus; conditions: for Tracer binding to S. aureus at a concentration of 1024 µg/mL vancomycin / Tracer binding to S. aureus at vancomycin concentrations below 2 µg/mL / Tracer binding to S. aureus at vancomycin concentrations of up to 64 µg/mL: S. aureus USA300, OD600 0.2, 125 kBq tracer per mL, 30 min incubation, gamma counter
Protocol: [^18F]FB-vancomycin was excluded due to its limited in vitro and in vivo stability. On the day of the experiment, a fresh culture was started in 10 mL of TSB and grown to an OD600 of 2.0. […] Bacteria were added to the dilutions to obtain a final OD600 of 0.2 and the vial was briefly vortexed to ensure proper mixing. Tracer was added (125 kBq per mL, 40.3 pg and 0.5 pg of [^18F]BODIPY-FL-vancomycin and [^18F]PQ-VE1-vancomycin, respectively) and the vial was vortexed again. After 30 min incubation, aliquots were collected in 2 mL Eppendorf tubes and washed twice with PBS by centrifugation. […] Measurements were corrected for background and decay. Results are reported as 10^3 counts per s (kBq).

E. coli [4] = conditions: previously reported; cited from earlier work
Protocol: (§1) In vitro binding of [^18F]BODIPY-FL-vancomycin and [^18F]FB-vancomycin to the Gram-positive bacterium S. aureus and the Gram-negative bacterium E. coli was assayed by incubating the bacteria with either one of the two tracers and collecting samples at fixed time intervals to determine the radioactivity associated with the bacteria.

S. aureus = conditions: previously reported; cited from earlier work
Protocol: as §1

[5] = up to 120 min, previously shown; cited from earlier work
Protocol: Tracer stability was assessed in both PBS and human plasma. […] In contrast, > 90% of the [^18F]BODIPY-FL-vancomycin remained stable in PBS and plasma for up to 120 min, as was also previously shown for [^18F]PQ-VE1-vancomycin [44].

Row | SMILES | MIC [1] [µg/mL] | Binding to E. coli (E. coli [2]) | Binding to Gram-positive bacteria in vitro (Gram-positive bacteria) | Vancomycin concentrations at which tracer binding is outcompeted, compared with [^18F]PQ-VE1-vancomycin ([3]; S. aureus USA300, 30 min incubation) | Tracer binding to S. aureus at a concentration of 1024 µg/mL vancomycin [3] | Tracer binding to S. aureus at vancomycin concentrations below 2 µg/mL [3] | Tracer binding to S. aureus at vancomycin concentrations of up to 64 µg/mL [3] | Binding to E. coli (E. coli [4]) | Binding to S. aureus (S. aureus) | Tracer remaining stable in PBS [5] | Tracer remaining stable in human plasma [5]
1 | Cc1cc(C)n2c1C=C1C=CC(CCC(=O)N(C)[C@H](CC(C)C)C(=O)N[C@H]3C(=O)N[C@@H](CC(N)=O)C(=O)N[C@H]4C(=O)N[C@H]5C(=O)N[C@H](C(=O)N[C@H](C(=O)O)c6cc(O)cc(O)c6-c6cc5ccc6O)[C@H](O)c5ccc(c(Cl)c5)Oc5cc4cc(c5O[C@@H]4O[C@H](CO)[C@@H](O)[C@H](O)[C@H]4O[C@H]4C[C@](C)(N)[C@H](O)[C@H](C)O4)Oc4ccc(cc4Cl)[C@H]3O)=[N+]1[B-]2(F)F [[^18F]BODIPY-FL-vancomycin] | 16 | not to E. coli | LogD7.4 -1.72. Am 5.35 GBq/µmol. MIC 16 µg/mL. Binding to Gram-positive bacteria in vitro. | slightly lower | reduced to baseline | not significantly inhibited | signal over background was still detected | – | – | – | –
2 | CC(C)C[C@H](C(=O)N[C@H]1C(=O)N[C@@H](CC(N)=O)C(=O)N[C@H]2C(=O)N[C@H]3C(=O)N[C@H](C(=O)N[C@H](C(=O)O)c4cc(O)cc(O)c4-c4cc3ccc4O)[C@H](O)c3ccc(c(Cl)c3)Oc3cc2cc(c3O[C@@H]2O[C@H](CO)[C@@H](O)[C@H](O)[C@H]2O[C@H]2C[C@](C)(N)[C@H](O)[C@H](C)O2)Oc2ccc(cc2Cl)[C@H]1O)N(C)C(=O)c1ccc(F)cc1 [[^18F]FB-vancomycin] | – | no bacterial binding was observed | – | – | – | – | – | – | – | – | –
3 | CN[C@H](CC(C)C)C(=O)N[C@H]1C(=O)N[C@@H](CC(N)=O)C(=O)N[C@H]2C(=O)N[C@H]3C(=O)N[C@H](C(=O)N[C@H](C(=O)O)c4cc(O)cc(O)c4-c4cc3ccc4O)[C@H](O)c3ccc(c(Cl)c3)Oc3cc2cc(c3O[C@@H]2O[C@H](CO)[C@@H](O)[C@H](O)[C@H]2O[C@H]2C[C@](C)(NC(=O)c3ccc4c5c(c6ccccc6c4c3)OCC(OCCF)O5)[C@H](O)[C@H](C)O2)Oc2ccc(cc2Cl)[C@H]1O (stereo partly shown) [[^18F]PQ-VE1-vancomycin] | – | – | Binding to Gram-positive bacteria in vitro | – | reduced to baseline | not significantly inhibited | signal over background was still detected | not to E. coli | rapid and selective binding to S. aureus | over 90% | over 90%
